Reference: patent publication US9145392B2, “Imidazole amines as modulators of kinase activity” (Merck Patent GmbH, priority 2011, dated 2015)

Key:
His-AKT (Full Length) = His-AKT (Full Length) (Homo sapiens (Human), UniProt P31749); assay: AKT enzyme assay; format: biochemical; settings: read-out: IC50 AKT
Description: A TTP Mosquito liquid handling instrument is used to place 125n1 of the appropriate concentration of inhibitor in 100% DMSO (for a dose response curve calculation) into each well of a 384-well plate.
The reaction is incubated for 90 min at 25 C, and then stopped by the addition of 70 μl of Stop buffer (100 mM HEPES pH 7.5, 0.015% Brij-35, 10 mM EDTA (Sigma, E7889)).
The plate is read on a Caliper LC 3000 in an Off-Chip mobility shift assay format, using the following parameters for a 12-sipper chip: screening pressure −2.3 psi, upstream voltage −500, and downstream voltage −3000. These conditions cause unphosphorylated substrate and phosphorylated product peptide to resolve as separate peaks allowing direct measurement of percentage of conversion of substrate to product. The percent conversion can be plotted against concentration of inhibitor to produce a sigmoidal dose response curve, from which an IC50 can be calculated.

P70S6K (T412E mutant) = P70S6K (T412E mutant) (Homo sapiens (Human), UniProt P23443, T412E); assay: P70S6K enzyme assay; format: biochemical; settings: read-out: IC50 p70S6K
P70S6K (T412E mutant), sequence (P23443 whole entry T412E): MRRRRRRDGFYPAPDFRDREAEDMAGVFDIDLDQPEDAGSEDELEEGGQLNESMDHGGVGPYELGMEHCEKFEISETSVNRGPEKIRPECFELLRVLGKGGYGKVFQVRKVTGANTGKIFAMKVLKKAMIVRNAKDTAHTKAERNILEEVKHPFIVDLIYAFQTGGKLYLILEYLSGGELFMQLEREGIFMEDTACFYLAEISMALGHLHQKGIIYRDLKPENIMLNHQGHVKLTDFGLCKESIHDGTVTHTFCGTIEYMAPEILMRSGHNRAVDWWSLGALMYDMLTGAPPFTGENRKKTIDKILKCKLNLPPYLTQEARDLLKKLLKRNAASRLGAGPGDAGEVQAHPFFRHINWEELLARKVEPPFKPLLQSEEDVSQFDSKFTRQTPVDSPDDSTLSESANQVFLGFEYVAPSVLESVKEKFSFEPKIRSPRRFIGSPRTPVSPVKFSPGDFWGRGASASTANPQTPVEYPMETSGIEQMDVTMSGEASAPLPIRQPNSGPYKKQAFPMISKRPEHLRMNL
Outline: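 Phosphorylated product and substrate peptide separated by microfluidic capillary electrophoresis (Caliper LabChip 3000), product peaks resolving before substrate.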

His-AKT (Full Length), sequence (P31749 whole entry): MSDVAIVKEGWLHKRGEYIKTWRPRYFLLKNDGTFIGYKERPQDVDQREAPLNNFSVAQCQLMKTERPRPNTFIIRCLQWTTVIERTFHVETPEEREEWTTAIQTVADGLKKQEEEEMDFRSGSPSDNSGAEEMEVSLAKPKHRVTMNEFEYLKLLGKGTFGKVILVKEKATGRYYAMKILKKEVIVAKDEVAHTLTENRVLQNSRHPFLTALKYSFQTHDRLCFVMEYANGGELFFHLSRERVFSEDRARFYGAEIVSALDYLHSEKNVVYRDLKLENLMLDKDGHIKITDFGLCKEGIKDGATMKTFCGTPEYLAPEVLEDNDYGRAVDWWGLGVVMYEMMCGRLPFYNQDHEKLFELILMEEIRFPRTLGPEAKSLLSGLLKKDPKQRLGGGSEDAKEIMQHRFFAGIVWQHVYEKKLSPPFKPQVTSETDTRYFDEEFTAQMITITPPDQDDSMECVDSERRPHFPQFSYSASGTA

Row | IC50 (His-AKT (Full Length)) [nM] | IC50 (P70S6K (T412E mutant)) [nM] | Structure (SMILES)
1 | 1400 | 95 | NC(=O)c1c(N)ncnc1N1CCC(c2nc(C3CCCCC3)cn2CCN2CCC2)CC1 [Compound 80, 4-Amino-6-{4-[1-(2-azetidin-1-yl-ethyl)-4-cyclohexyl-1H-imidazol-2-yl]-piperidin-1-yl}-pyrimidine-5-carboxylic acid amide]
2 | 15000 | 98 | NC(=O)c1c(N)ncnc1N1CCC(c2nc(-c3ccc(OC(F)F)cc3)cn2CCN2CCC2)CC1 [Compound 81, 4-Amino-6-{4-[1-(2-azetidin-1-yl-ethyl)-4-(4-difluoromethoxy-phenyl)-1H-imidazol-2-yl]-piperidin-1-yl}-pyrimidine-5-carboxylic acid amide]
3 | 12 | 3.7 | CCc1c(N)ncnc1N1CCC(c2nc(-c3ccc(F)c(C(F)(F)F)c3)cn2CCN(C)C)CC1 [Compound 82, 6-(4-(1-(2-(Dimethylamino)ethyl)-4-(4-fluoro-3-(trifluoromethyl)phenyl)-1H-imidazol-2-yl)piperidin-1-yl)-5-ethylpyrimidin-4-amine]
4 | 190 | 20 | CN(C)CCn1cc(-c2ccc(F)c(C(F)(F)F)c2)nc1C1CCN(c2ncnc(N)c2CCC2CC2)CC1 [Compound 83, 5-(2-Cyclopropylethyl)-6-(4-(1-(2-(dimethylamino)ethyl)-4-(4-fluoro-3-(trifluoromethyl)phenyl)-1H-imidazol-2-yl)piperidin-1-yl)pyrimidin-4-amine]
5 | 340 | 5.2 | CCOCCc1c(N)ncnc1N1CCC(c2nc(-c3ccc(F)c(C(F)(F)F)c3)cn2CCN(C)C)CC1 [Compound 84, 6-(4-(1-(2-(Dimethylamino)ethyl)-4-(4-fluoro-3-(trifluoromethyl)phenyl)-1H-imidazol-2-yl)piperidin-1-yl)-5-(2-ethoxyethyl)pyrimidin-4-amine]
6 | 43 | 12 | CN(C)CCn1cc(-c2ccc(F)c(C(F)(F)F)c2)nc1C1CCN(c2ncnc(N)c2/C=C/C2CC2)CC1 [Compound 85, (E)-5-(2-Cyclopropylvinyl)-6-(4-(1-(2-(dimethylamino)ethyl)-4-(4-fluoro-3-(trifluoromethyl)phenyl)-1H-imidazol-2-yl)piperidin-1-yl)pyrimidin-4-amine]
7 | 4 | 1.9 | CCO/C=C/c1c(N)ncnc1N1CCC(c2nc(-c3ccc(F)c(C(F)(F)F)c3)cn2CCN(C)C)CC1 [Compound 86, (E)-6-(4-(1-(2-(Dimethylamino)ethyl)-4-(4-fluoro-3-(trifluoromethyl)phenyl)-1H-imidazol-2-yl)piperidin-1-yl)-5-(2-ethoxyvinyl)pyrimidin-4-amine]
8 | 190 | 9.3 | CN(C)CCn1cc(-c2ccc(F)c(C(F)(F)F)c2)nc1C1CCN(c2ncnc(N)c2-c2ccc(C(C)(C)O)cc2)CC1 [Compound 87, 2-(4-(4-Amino-6-(4-(1-(2-(dimethylamino)ethyl)-4-(4-fluoro-3-(trifluoromethyl)phenyl)-1H-imidazol-2-yl)piperidin-1-yl)pyrimidin-5-yl)phenyl)propan-2-ol]
9 | 95 | 8.1 | COC(=O)c1ccc(-c2c(N)ncnc2N2CCC(c3nc(-c4ccc(F)c(C(F)(F)F)c4)cn3CCN(C)C)CC2)cc1 [Compound 88, Methyl 4-(4-amino-6-(4-(1-(2-(dimethylamino)ethyl)-4-(4-fluoro-3-(trifluoromethyl)phenyl)-1H-imidazol-2-yl)piperidin-1-yl)pyrimidin-5-yl)benzoate]
10 | 33 | 7.3 | CN(C)CCn1cc(-c2ccc(F)c(C(F)(F)F)c2)nc1C1CCN(c2ncnc(N)c2-c2ccc(C(=O)O)cc2)CC1 [Compound 89]
11 | 31 | 3.1 | CN(C)CCn1cc(-c2ccc(F)c(C(F)(F)F)c2)nc1C1CCN(c2ncnc(N)c2C2=CCCC2)CC1 [Compound 90]
12 | 4.8 | 3.2 | CN(C)CCn1cc(-c2ccc(F)c(C(F)(F)F)c2)nc1C1CCN(c2ncnc(N)c2C2CC2)CC1 [Compound 91, 5-Cyclopropyl-6-(4-(1-(2-(dimethylamino)ethyl)-4-(4-fluoro-3-(trifluoromethyl)phenyl)-1H-imidazol-2-yl)piperidin-1-yl)pyrimidin-4-amine]
13 | 71 | 4.2 | CCc1c(N)ncnc1N1CCC(c2nc(-c3ccc(F)c(C(F)(F)F)c3)cn2CCN2CC(F)C2)CC1 [Compound 92, 5-ethyl-6-(4-(4-(4-fluoro-3-(trifluoromethyl)phenyl)-1-(2-(3-fluoroazetidin-1-yl)ethyl)-1H-imidazol-2-yl)piperidin-1-yl)pyrimidin-4-amine]
14 | 7.7 | 3 | CCc1c(N)ncnc1N1CCC(c2nc(-c3ccc(F)c(C(F)(F)F)c3)cn2CCN2CC(C)C2)CC1 [Compound 93, 5-ethyl-6-(4-(4-(4-fluoro-3-(trifluoromethyl)phenyl)-1-(2-(3-methylazetidin-1-yl)ethyl)-1H-imidazol-2-yl)piperidin-1-yl)pyrimidin-4-amine]
15 | 1600 | 13 | CCc1c(N)ncnc1N1CCC(c2nc(-c3ccc(F)c(C(F)(F)F)c3)cn2CCN2CC(F)(F)C2)CC1 [Compound 94, 6-(4-(1-(2-(3,3-difluoroazetidin-1-yl)ethyl)-4-(4-fluoro-3-(trifluoromethyl)phenyl)-1H-imidazol-2-yl)piperidin-1-yl)-5-ethylpyrimidin-4-amine]
16 | 520 | 47 | CCN(C)Cc1c(N)ncnc1N1CCC(c2nc(-c3ccc(F)c(C(F)(F)F)c3)cn2CCN(C)C)CC1 [Compound 95, 6-(4-(1-(2-(dimethylamino)ethyl)-4-(4-fluoro-3-(trifluoromethyl)phenyl)-1H-imidazol-2-yl)piperidin-1-yl)-5-((ethyl(methyl)amino)methyl)pyrimidin-4-amine]
17 | 7.9 | 5.3 | CC(C)Oc1c(N)ncnc1N1CCC(c2nc(-c3ccc(F)c(C(F)(F)F)c3)cn2CCN2CCC2)CC1 [Compound 96, 6-(4-(1-(2-(azetidin-1-yl)ethyl)-4-(4-fluoro-3-(trifluoromethyl)phenyl)-1H-imidazol-2-yl)piperidin-1-yl)-5-isopropoxypyrimidin-4-amine]
18 | 6.1 | 2.2 | COc1c(N)ncnc1N1CCC(c2nc(-c3ccc(F)c(C(F)(F)F)c3)cn2CCN2CCC2)CC1 [Compound 97, 6-(4-(1-(2-(azetidin-1-yl)ethyl)-4-(4-fluoro-3-(trifluoromethyl)phenyl)-1H-imidazol-2-yl)piperidin-1-yl)-5-methoxypyrimidin-4-amine]
19 | 6.9 | 3 | Nc1ncnc(N2CCC(c3nc(-c4ccc(F)c(C(F)(F)F)c4)cn3CCN3CCC3)CC2)c1-c1cn[nH]c1 [Compound 98, 6-(4-(1-(2-(azetidin-1-yl)ethyl)-4-(4-fluoro-3-(trifluoromethyl)phenyl)-1H-imidazol-2-yl)piperidin-1-yl)-5-(1H-pyrazol-4-yl)pyrimidin-4-amine]
20 | 18 | 4.5 | CCc1c(N)ncnc1N1CCC(c2nc(-c3cncc(C(F)(F)F)c3)cn2CCN2CCC2)CC1 [Compound 99, 6-(4-(1-(2-(azetidin-1-yl)ethyl)-4-(5-(trifluoromethyl)pyridin-3-yl)-1H-imidazol-2-yl)piperidin-1-yl)-5-ethylpyrimidin-4-amine]
21 | 16 | 2.3 | CCc1c(N)ncnc1N1CCC(c2nc(-c3cccc(OC(F)(F)F)c3)cn2CCN2CCC2)CC1 [Compound 100, 6-(4-(1-(2-(azetidin-1-yl)ethyl)-4-(3-(trifluoromethoxy)phenyl)-1H-imidazol-2-yl)piperidin-1-yl)-5-ethylpyrimidin-4-amine]
22 | 31 | 7.6 | CCc1c(N)ncnc1N1CCC(c2nc(-c3cncc(Cl)c3)cn2CCN2CCC2)CC1 [Compound 101, 6-(4-(1-(2-(azetidin-1-yl)ethyl)-4-(5-chloropyridin-3-yl)-1H-imidazol-2-yl)piperidin-1-yl)-5-ethylpyrimidin-4-amine]
23 | 4.1 | 2.4 | CCOc1c(N)ncnc1N1CCC(c2nc(-c3ccc(F)c(C(F)(F)F)c3)cn2CCN2CCC2)CC1 [Compound 102, 6-(4-(1-(2-(azetidin-1-yl)ethyl)-4-(4-fluoro-3-(trifluoromethyl)phenyl)-1H-imidazol-2-yl)piperidin-1-yl)-5-ethoxypyrimidin-4-amine]
24 | 6.6 | 4.2 | Nc1ncnc(N2CCC(c3nc(-c4ccc(F)c(C(F)(F)F)c4)cn3CCN3CCC3)CC2)c1OCC(F)(F)F [Compound 103, 6-(4-(1-(2-(azetidin-1-yl)ethyl)-4-(4-fluoro-3-(trifluoromethyl)phenyl)-1H-imidazol-2-yl)piperidin-1-yl)-5-(2,2,2-trifluoroethoxy)pyrimidin-4-amine]
25 | 16.5 | 3.1 | CCc1c(N)ncnc1N1CCC(c2nc(-c3ccnc(Cl)c3)cn2CCN2CCC2)CC1 [Compound 104, 6-(4-(1-(2-(azetidin-1-yl)ethyl)-4-(2-chloropyridin-4-yl)-1H-imidazol-2-yl)piperidin-1-yl)-5-ethylpyrimidin-4-amine]
26 | 13 | 2.7 | CCc1c(N)ncnc1N1CCC(c2nc(-c3ccnc(C(F)(F)F)c3)cn2CCN2CCC2)CC1 [Compound 105, 6-(4-(1-(2-(azetidin-1-yl)ethyl)-4-(2-(trifluoromethyl)pyridin-4-yl)-1H-imidazol-2-yl)piperidin-1-yl)-5-ethylpyrimidin-4-amine]
